This is an account of results in patent US12351570B2 (MERCK PATENT GMBH, priority 2018, dated 2025).

In the assay the test system is MDA-MB-231 cells. Description: Extracellular lactate production inhibition after 4 h, MDA-MB-231. Conditions: Homo sapiens, MDA-MB-231.
Take `Cc1cc(C)c2cccnc2c1S(=O)(=O)Nc1ccccc1C#Cc1cnc(C(=O)O)c2ccccc12` [Compound 446, 4-{2-[2-(5,7-dimethylquinoline-8-sulfonamido)phenyl]ethynyl}iso-quinoline-1-carboxylic acid]: the 50% inhibitory concentration (IC50) (as a rule, the concentration that gives 50% inhibition) fell in the range of 100 to 1000 nM. Next, `COc1cc(C#Cc2ccccc2NS(=O)(=O)c2cccc3ccccc23)cnc1C(=O)O` [Compound 71, 3-methoxy-5-{2-[2-(naphthalene-1-sulfonamido)phenyl]ethynyl}pyridine-2-carboxylic acid]: 1000 to 100000 nM. The result for `COc1ccc(S(=O)(=O)Nc2ccccc2C#Cc2ccc(C(=O)NS(C)(=O)=O)cc2)c2ccccc12` [Compound 252, 4-Methoxy-naphthalene-1-sulfonic acid [2-(4-methanesulfonylaminocarbonyl-phenylethynyl)-phenyl]-amide] reads 1000 to 100000 nM; that for `CNc1cc(C#Cc2ccccc2NS(=O)(=O)c2ccc(OC)c3cccnc23)ccc1C(=O)O` [Compound 232, 4-{2-[2-(5-methoxyquinoline-8-sulfonamido)phenyl]ethynyl}-2-(methylamino)benzoic acid], 100 to 1000 nM; that for `COC(=O)c1ccc(C#Cc2ccccc2NS(=O)(=O)c2ccc(OC)c3cccnc23)cn1` [Compound 129, methyl 5-{2-[2-(5-methoxyquinoline-8-sulfonamido)phenyl]ethynyl}pyridine-2-carboxylate], 10 to 100 nM. Molecule `Cc1cc(C(=O)O)ncc1C#Cc1cc(F)ccc1NS(=O)(=O)c1ccc(-c2ccccc2)cc1` [Compound 138, 5-[2-(2-{[1,1′-biphenyl]-4-sulfonamido}-5-fluorophenyl)ethynyl]-4-methylpyridine-2-carboxylic acid] registered an IC50 of 100 to 1000 nM. Next, `CCc1ccc2cccnc2c1S(=O)(=O)Nc1ccccc1C#Cc1cnc(C(=O)O)cc1OC` [Compound 369, 5-{2-[2-(7-ethylquinoline-8-sulfonamido)phenyl]ethynyl}-4-methoxypyridine-2-carboxylic acid]: 1 to 10 nM; `COc1ncc(S(=O)(=O)Nc2ccccc2C#Cc2ccc(C(=O)O)cc2)cc1Br` [Compound 48, 4-{2-[2-(5-bromo-6-methoxypyridine-3-sulfonamido)phenyl]ethynyl}benzoic acid]: 100 to 1000 nM; `O=C(O)c1ccc(C#Cc2ccccc2NS(=O)(=O)C2Cc3ccccc3C2)cc1` [Compound 93, 4-{2-[2-(2,3-dihydro-1H-indene-2-sulfonamido)phenyl]ethynyl}benzoic acid]: 1000 to 100000 nM. The molecule `O=C(O)c1ccc(C#Cc2ccccc2NS(=O)(=O)N2CCc3ccccc32)cn1` [Compound 126, 5-(2-{2-[(2,3-dihydro-1H-indole-1-sulfonyl)amino]phenyl}ethynyl)pyridine-2-carboxylic acid] came in with an IC50 of 100 to 1000 nM. In turn, `COc1ccccc1-c1cccc(CN(C=O)c2ccccc2C#Cc2ccc(C(=O)O)nc2)c1` [Compound 179, 5-(2-{2-[N-({2′-methoxy-[1,1′-biphenyl]-3-yl}methyl)formamido]phenyl}ethynyl) pyridine-2-carboxylic acid] displayed a 50% inhibitory concentration (IC50) of 100 to 1000 nM. In turn, `COCCOC(=O)c1ccc(C#Cc2ccccc2NS(=O)(=O)c2c(C)ccc3cccnc23)cn1` [Compound 410, 2-methoxyethyl 5-{2-[2-(7-methylquinoline-8-sulfonamido)phenyl]ethynyl}pyridine-2-carboxylate] gave a half-maximal inhibitory concentration (IC50) of 100 to 1000 nM. `COc1cccc(S(=O)(=O)Nc2ccccc2C#Cc2ccc(C(=O)O)c(C)c2)c1` [Compound 9, 4-{2-[2-(3-methoxybenzenesulfonamido)phenyl]-ethynyl}-2-methylbenzoic acid] registered a concentration for half-maximal inhibition (IC50) of 1000 to 100000 nM. For `COc1ccc(S(=O)(=O)Nc2ccccc2C#Cc2ccc(C(=O)O)cc2)c(C)c1` [Compound 47, 4-{2-[2-(4-methoxy-2-methylbenzenesulfonamido)phenyl]ethynyl} benzoic acid], the concentration for half-maximal inhibition (IC50) fell in the range of 100 to 1000 nM. Next, `COC(=O)c1ncc(C#Cc2cc(F)ccc2NS(=O)(=O)c2ccc3c(c2)oc2ccccc23)cc1C` [Compound 318, methyl 5-[2-(5-fluoro-2-{8-oxatricyclo[7.4.0.0^2,7]trideca-1(9),2(7),3,5,10,12-hexaene-5-sulfonamido}phenyl)ethynyl]-3-methylpyridine-2-carboxylate]: 1000 to 100000 nM; `COc1ccc(S(=O)(=O)Nc2ccccc2C#Cc2cnc(C(=O)O)cc2Cl)c2ncccc12` [Compound 159, 4-chloro-5-{2-[2-(5-methoxyquinoline-8-sulfonamido)phenyl]ethynyl}pyridine-2-carboxylic acid]: 10 to 100 nM; `CCOc1ccc(S(=O)(=O)Nc2ccccc2C#Cc2cnc(C(=O)O)c(CC)c2)c2ncccc12` [Compound 371, 5-[2-(5-Ethoxy-quinoline-8-sulfonylamino)-phenylethynyl]-3-ethyl-pyridine-2-carboxylic acid]: 1 to 10 nM. As for `COCCOC(=O)c1cc(OC)c(C#Cc2ccccc2NS(=O)(=O)c2c(C)ccc3cccnc23)cn1` [Compound 412, 2-methoxyethyl 4-methoxy-5-{2-[2-(7-methylquinoline-8-sulfonamido)phenyl]ethynyl}pyridine-2-carboxylate], the concentration for half-maximal inhibition (IC50) was in the range of 10 to 100 nM. With `COc1ccc(S(=O)(=O)Nc2ccccc2C#Cc2ccc(C(=O)O)nc2)c(OC)c1` [Compound 299, 5-{2-[2-(2,4-dimethoxybenzenesulfon-amido)phenyl]ethynyl}pyridine-2-carboxylic acid], the half-inhibitory concentration (IC50) lay in the range of 1000 to 100000 nM. In turn, `O=C(O)c1ccc(C#Cc2ccccc2NS(=O)(=O)c2c(Br)ccc3ccc(Cl)nc23)cn1` [Compound 315, 5-{2-[2-(7-bromo-2-chloroquinoline-8-sulfonamido)phenyl]ethynyl}pyridine-2-carboxylic acid] came in with a half-inhibitory concentration (IC50) of 10 to 100 nM.

Molecule `CS(=O)(=Nc1ccccc1C#Cc1cnc(C(=O)O)c2ccccc12)c1cccc2cccnc12` (centres unmarked) [Compound 448, 4-[2-(2-{[methyl(oxo)(quinolin-8-yl)-λ6-sulfanylidene]amino}phenyl)ethynyl]-isoquinoline-1-carboxylic acid] registered a concentration for half-maximal inhibition (IC50) of 100 to 1000 nM. On to `NCCOCCOCCOCCOc1ccnc2c(S(=O)(=O)Nc3ccccc3C#Cc3cnc(C(=O)O)c4ccccc34)cccc12` [Compound 443, 4-(2-{2-[4-(2-{2-[2-(2-aminoethoxy)ethoxy]ethoxy}ethoxy)quinoline-8-sulfonamido]phenyl}-ethynyl)isoquinoline-1-carboxylic acid], for which the IC50 is 1000 to 100000 nM. Next, `CNc1cc(C#Cc2ccccc2NS(=O)(=O)c2c(C)ccc3cccnc23)cnc1C(=O)O` [Compound 206, 3-(methylamino)-5-{2-[2-(7-methylquinoline-8-sulfonamido)phenyl]-ethynyl}pyridine-2-carboxylic acid]: 1 to 10 nM; `Cc1ccc2cccnc2c1S(=O)(=O)Nc1ccc(N)cc1C#Cc1ccc(C(=O)O)nc1` [Compound 231, 5-{2-[5-amino-2-(7-methylquinoline-8-sulfonamido)phenyl]ethynyl}pyridine-2-carboxylic acid]: 1000 to 100000 nM; `COc1cc(C(=O)O)ncc1C#Cc1cc(Cl)ccc1NS(=O)(=O)c1ccc(OC)c(C)c1C` [Compound 243, 5-{2-[5-chloro-2-(4-methoxy-2,3-dimethylbenzenesulfonamido)-phenyl]ethynyl}-4-methoxypyridine-2-carboxylic acid]: 1 to 10 nM.

In turn, `CNc1cc(C#Cc2cc(Cl)ccc2NS(=O)(=O)c2ccc(OC)c3cccnc23)cnc1C(=O)O` [Compound 242, 5-{2-[5-chloro-2-(5-methoxyquinoline-8-sulfonamido)phenyl]ethynyl}-3-(methyl-amino)pyridine-2-carboxylic acid] showed an IC50 of 1 to 10 nM. Next, `Cc1ccc2cccc(S(=O)(=O)Nc3ccccc3C#Cc3cnc(C(=O)O)c4ccccc34)c2n1` [Compound 444, 4-{2-[2-(2-methylquinoline-8-sulfonamido)phenyl]ethynyl}iso-quinoline-1-carboxylic acid]: 1000 to 100000 nM; `O=C(O)c1ccc(C#Cc2ccccc2NS(=O)(=O)C2=Cc3ccccc3CC2)cn1` [Compound 81, 5-{2-[2-(3,4-dihydronaphthalene-2-sulfonamido)phenyl]ethynyl}pyridine-2-carboxylic acid]: 100 to 1000 nM. `COc1cc(C(=O)N(C)C)ncc1C#Cc1ccccc1NS(=O)(=O)c1ccc(OC)c2cccnc12` [Compound 223, 4-methoxy-5-{2-[2-(5-methoxyquinoline-8-sulfonamido)phenyl]ethynyl}-N,N-dimethylpyridine-2-carboxamide] had a half-maximal inhibitory concentration (IC50) of 1000 to 100000 nM. As for `O=C(O)c1ccc(C#Cc2ccccc2NS(=O)(=O)c2cccc(Br)c2)cn1` [Compound 95, 5-{2-[2-(3-bromobenzenesulfonamido)phenyl]-ethynyl}pyridine-2-carboxylic acid], the concentration for half-maximal inhibition (IC50) fell in the range of 1000 to 100000 nM.

`COC(=O)c1cc(Cl)c(C#Cc2ccccc2NS(=O)(=O)c2c(C)ccc3cccnc23)cn1` [Compound 152, methyl 4-chloro-5-{2-[2-(7-methylquinoline-8-sulfonamido)phenyl]-ethynyl}pyridine-2-carboxylate] registered an IC50 of 10 to 100 nM. On to `COc1cc(C(=O)OCC2COC(C)(C)O2)ncc1C#Cc1ccccc1NS(=O)(=O)c1c(C)ccc2cccnc12` (centres unmarked) [Compound 406, (2,2-dimethyl-1,3-dioxolan-4-yl)methyl 4-methoxy-5-{2-[2-(7-methylquinoline-8-sulfonamido)phenyl]ethynyl}pyridine-2-carboxylate], for which the IC50 is 10 to 100 nM. The molecule `CCOc1ccnc2c(S(=O)(=O)Nc3ccccc3C#Cc3ccc(C(=O)O)nc3)cccc12` [Compound 348, 5-{2-[2-(4-ethoxyquinoline-8-sulfonamido)phenyl]ethynyl}pyridine-2-carboxylic acid] came in with a 50% inhibitory concentration (IC50) of 10 to 100 nM. In the case of `Cc1cc(C#Cc2ccccc2NS(=O)(=O)c2cccc3ccccc23)cnc1C(=O)O` [Compound 74, 3-methyl-5-{2-[2-(naphthalene-1-sulfonamido)phenyl]ethynyl}pyridine-2-carboxylic acid], the IC50 lay within 100 to 1000 nM. In turn, `COC(=O)c1ncc(C#Cc2cc(F)ccc2NS(=O)(=O)c2ccc(OC)c3cccnc23)cc1C` [Compound 316, methyl 5-{2-[5-fluoro-2-(5-methoxyquinoline-8-sulfonamido)phenyl]ethynyl}-3-methylpyridine-2-carboxylate] displayed a half-inhibitory concentration (IC50) of 1000 to 100000 nM.
